One assay relates to LNCaP cells. The assay is described as follows: MTT viability assay, LNCaP. The assay is classed as cell-based. Conditions: Homo sapiens, 1% FBS-containing or serum-free RPMI 1640 medium for 24 h. The protocol: (§1) The prostate cancer cell lines, LNCaP and PC-3, were purchased from American Type Culture Collection (Manassas, Va.) and maintained in RPMI 1640 medium containing 10% heat-inactivated fetal bovine serum at 37° C. in a humidified incubator containing 5% CO2. The LNCaP-abl cells were a generous gift from Dr. Qianben Wang (The Ohio State University). Normal prostate epithelial cells were purchased from Lonza (Walkersville, Md.) and were cultured in the vendor-recommended defined prostate epithelial cell growth medium. For experiments, LNCaP cells were plated on poly-D-lysine-coated culture flasks at a density of 12,000 cells per cm^2 surface area for 24 hours, followed by treatment with test agents in serum-free RPMI 1640 medium. The α- and γ-tocopherols were purchased from Sigma-Aldrich (St. Louis, Mo.). The tocopherol derivatives, α- and γ-VE5, were synthesized by the inventors.
(§2) LNCaP cells were plated into poly-D-lysine-coated 96-well plates and PC-3 and LNCaP-abl cells into uncoated plates at the density of 5,000 cells per well in the presence of 10% FBS. Normal prostate epithelial cells were plated into uncoated plates at a density of 8,000 cells per well. […] After 24 hours of treatment, cells were incubated with MTT [3-(4,5-dimethylthiazol-2-yl)-2,5-diphenyl-2H-tetrazolium bromide] (TCI America; 0.5 mg/ml, final concentration) for an additional 2 hours. The medium was then removed from each well and replaced with DMSO to dissolve the reduced MTT dye for subsequent colorimetric measurement of absorbance at 595 nm. Cell viabilities are calculated as percentages of that in the corresponding vehicle-treated control group.
(In general: Tetrazolium dyes change colour on reduction, which living cells bring about.)

The next assay relates to PC-3 cells. The assay is described as follows: MTT viability assay, PC-3. The assay is classed as cell-based. The settings on record: Homo sapiens, PC-3; for IC50: 1% FBS-containing or serum-free RPMI 1640 medium for 24 h, read-out: IC50 (μM) PC-3; for pIC50: Table 4, effect of chain length on antiproliferative activity, read-out: IC50. The protocol:
as §1, §2

pIC50: −log10 of the molar value. Read-outs that look alike come from different tables or passages of the source.

Turning to `CC(C)CCCC1(C)CCc2cc(N)ccc2O1` (racemic) [Compound 32, 2-methyl-2-(4-methylpentyl)chroman-6-amine], in the assay on LNCaP cells, the half-maximal inhibitory concentration (IC50) (commonly the concentration needed to halve the response being measured) was over 50 µM.
Compound `CC(C)CCCC1(C)CCc2ccc(O)c(O)c2O1` (racemic) [Compound 35, 2-methyl-2-(4-methylpentyl)chroman-7,8-diol] displayed an IC50 in the assay on LNCaP cells of over 50 µM.
As for `CCCCCCCCC1(C)CCc2cc(O)cc(F)c2O1` (centres unmarked) [Compound 12, 8-fluoro-2-methyl-2-octylchroman-6-ol], in the assay with PC-3 cells, the half-maximal inhibitory concentration (IC50) stood at 8.5 µM and the negative-log IC50 (pIC50) (in general, −log10 of the IC50, conventionally taken in molar units) was 5.07.
As for `CC(C)CCCC1(C)CC(=O)c2cc(O)ccc2O1` (racemic) [Compound 33, 6-hydroxy-2-methyl-2-(4-methylpentyl)chroman-4-one], in the assay with LNCaP cells, the IC50 amounted to 30 µM.
For the compound `Cc1cc2c(cc1O)C(=O)CC(C)(CCCC(C)C)O2` (racemic) [Compound 34, 6-hydroxy-2,7-dimethyl-2-(4-methylpentyl)chroman-4-one], the IC50 in the assay on LNCaP cells was found to be 30 µM.
In the case of `CCc1ccc(CCC2(C)CCc3cc(O)cc(F)c3O2)cc1` (centres unmarked) [Compound 13, 2-(4-ethylphenethyl)-8-fluoro-2-methyl-chroman-6-ol], in the assay with PC-3 cells, the IC50 is 9 µM and the negative-log IC50 (pIC50) is 5.05.
In turn, `CC(C)CCCC1(C)CCc2c(O)cc(N3CCCC3)cc2O1` (racemic) [Compound 36, 2-methyl-2-(4-methylpentyl)-7-(pyrrolidin-1-yl)chroman-5-ol] yielded an IC50 with LNCaP cells of 21 µM.
In turn, `Cc1c(O)cc2c(c1C)O[C@](C)(CCCC(C)CCCC(C)C)CC2` (stereo partly drawn) [Compound 27, (2R)-2-(4,8-dimethylnonyl)-2,7,8-trimethylchroman-6-ol] registered an IC50 in the assay on LNCaP cells of 30 µM.
As to `COCCCC1(C)CCc2cc(O)cc(F)c2O1` (centres unmarked) [Compound 11, 8-fluoro-2-(3-methoxypropyl)-2-methyl-chroman-6-ol], in the assay with PC-3 cells, the concentration for half-maximal inhibition (IC50) is over 30 µM and the pIC50 is under 4.52.
In turn, `Cc1c(O)cc2c(c1C)OC(C)(CCCC(C)C)CC2` (racemic) [rac-VE5] had a 50% inhibitory concentration (IC50) with LNCaP cells of 20 µM.
Compound `Cc1c(C)c2c(c(C)c1O)CC[C@@](C)(CCCC(C)CCCC(C)C)O2` (stereo partly drawn) [Compound 28, (2R)-2-(4,8-dimethylnonyl)-2,5,7,8-tetramethylchroman-6-ol] yielded a half-inhibitory concentration (IC50) in the assay on LNCaP cells of 42 µM.
In the assay with LNCaP cells, `CC(C)CCCC1(C)CCc2cc(O)ccc2O1` (racemic) [Compound 29, 2-methyl-2-(4-methylpentyl)chroman-6-ol] gave an IC50 of 40 µM.
Still for that read-out and setting: as for `CC(C)CCCC1(C)CC(=O)c2c(O)cc(N3CCCC3)cc2O1` (racemic) [Compound 37, 5-hydroxy-2-methyl-2-(4-methylpentyl)-7-(pyrrolidin-1-yl)chroman-4-one], the figure is over 50 µM.
Turning to `CCCCCCCCC1(C)CCc2cc(O)cc(C)c2N1` (centres unmarked) [Compound 10, 2,8-dimethyl-2-octyl-1,2,3,4-tetrahydro-quinolin-6-ol], in the assay with PC-3 cells, the 50% inhibitory concentration (IC50) was 8.5 µM and the negative-log IC50 (pIC50) is 5.07.
Consider `COc1ccc2c(c1)CCC(C)(CCCC(C)C)O2` (racemic) [Compound 30, 6-methoxy-2-methyl-2-(4-methylpentyl)-chroman], for which, in the assay on LNCaP cells, the IC50 amounted to 40 µM.
Regarding `CC(C)CCCC1(C)CCc2c(O)cccc2O1` (racemic) [Compound 31, 2-methyl-2-(4-methylpentyl)chroman-5-ol], the half-maximal inhibitory concentration (IC50) in the assay with LNCaP cells stood at 18 µM.

The values above are taken from US20140031388A1, “AKT INACTIVATION BY TOCOPHERYL DERIVATIVES” (priority 2012, published 2014).
